The values that follow come from a melting point compilation (Tetko et al.; mined from patent text by program, amines drawn as free bases though some values may be those of a salt).

Where only a bound is given, the exact number is not on record here.

Consider `N#Cc1cc(C2=Nc3cc(O)c(-c4ccc(F)cc4)cc3NC(=O)C2)ccn1`, for which the melting point – broadly, the temperature, or range, at which the solid turns liquid – turned out to be 164 °C.

With `Fc1cccc2[nH]cc(C3CCC4(CC3)OCCO4)c12`, the melting point lay in the range of 161 to 162 °C.

For `COc1ccc2c(c1)c1c3c(c(-c4ccccc4OC)cc1n2CCCO)C(=O)NC3=O`, the melting point lay in the range of 223 to 225 °C.

For the compound `CC(C=O)n1nnc2ccc(Oc3cc(F)c(C(F)(F)F)c(Cl)c3)cc21` (centres undefined), the melting point was in the range of 107 to 108 °C.

Compound `Cc1nc(Cl)c2c(n1)N(c1c(C)cc(Br)cc1C)C(=O)C2C` (centres undefined) returned a melting point of 148 to 150 °C.

In turn, `CC(C)c1c(Sc2cc(Cl)cc(Cl)c2)nc(CO)n1C` had a melting point of 167 to 168 °C.

For the compound `Cc1cc(=O)[nH]c2ccc(OCCCN3CCN(Cc4ccc(F)cc4)CC3)cc12`, the melting point lay within 178 to 180 °C.

As to `COc1ccc(C=CC(=O)O)cc1-c1cc2c(cc1OCCCCCCCC(=O)OC(C)(C)C)C(C)(C)CCC2(C)C`, the melting point is 126 to 128 °C.

Compound `CCOC(=O)Nc1ccc(CCBr)c(Cl)c1` showed a melting point of 112 to 114 °C.

The compound `Cc1nc(-c2cc3[nH]c(=O)c(=O)[nH]c3cc2[N+](=O)[O-])c[nH]1` displayed a melting point greater than 300 °C.

Regarding `Nc1cccc(C(=O)Nc2ccc(NNC=O)cc2)c1`, the melting point was 177 to 178 °C.

In the case of `Cc1cccc(NC(=O)NC(C)C(=O)N(c2ccccc2)c2ccccc2)c1` (racemic), the melting point is 82 °C.

Turning to `CCCCCCCCCCCCCCOC(=O)CCC(=O)O`, the melting point was in the range of 48 to 49 °C.

As to `Cn1ccc2cc(-c3cc4nccnc4[nH]3)ccc21`, the melting point was in the range of 260 to 265 °C.

As for `COC(=O)COC(=O)c1ccc(OCC(=O)OC)cc1`, the melting point lay within 53 to 57 °C.

`CCN(CC)CCNC(=O)c1c2cc(I)ccc2nc2ccc(I)cc12`: the melting point lay within 209 to 211 °C.

Compound `CC(c1ccc(-c2ccccc2)c(F)c1)c1cc(N)on1` (centres undefined) displayed a melting point of 122 to 123 °C.

The compound `COc1ccc2c(c1)CCc1cn[nH]c1-2` gave a melting point of 162 to 164 °C.

Take `CC(CC(=O)O)CC(=O)Nc1cccc(-c2ccnc3c(C(=O)c4cccs4)cnn23)c1` (centres undefined): the melting point is 135 to 136 °C.

For the compound `CC(=O)N1CCc2[nH]cc3c(=O)n(-c4ccc(Cl)cc4)nc-3c2C1`, the melting point is greater than 350 °C.

With `O=C(NC1N=C(c2ccccc2)c2ccccc2NC1=O)c1ccc(-c2ccccc2)cc1` (racemic), the melting point lay within 274 to 276 °C.

Compound `CCCCCCCCCCCCNC(=O)c1cc(-c2ccc(OC)cc2)c(OCC(=O)O)c(-c2cccc(Cl)c2)c1` showed a melting point of 114 to 117 °C.

Compound `O=C(CCOc1ccc(Cl)cc1)NCCCn1ccnc1` returned a melting point of 114 to 116 °C.

Turning to `CCNc1cn(-c2cncc(F)c2)nc1C`, the melting point was 85 to 86 °C.

Turning to `Cc1cccc(C(Cl)=NNc2ccccc2)c1`, the melting point was in the range of 66 to 67 °C.

In the case of `COC(=O)C=Cc1cc(F)ccc1C(=O)O`, the melting point lay in the range of 151 to 153 °C.

Turning to `C[C@@H]1CCCN1CCCOc1ccc(-c2cc(-c3ccccn3)c(=O)[nH]n2)cc1`, the melting point was in the range of 157 to 161 °C.

`CCOC(=O)C(=O)c1c[nH]c2ccc(Br)cc12` returned a melting point of 182 to 183 °C.

`CCC1(C)CC2(NC(=O)N(c3ccccc3)C2=O)C(C)C(C)(CC)N1` (centres undefined) came in with a melting point of 150 to 153 °C.

`CC1Nc2cc(N(C)C(=O)c3ccc(-c4ccccc4)cc3)ccc2N1C` (centres undefined) gave a melting point of 213 to 214 °C.

In turn, `CCOCc1nc2c(N)ncc(C)c2n1CCCCNS(C)(=O)=O` registered a melting point of 173 to 175 °C.

For `CC(=O)CSc1nc2ccccc2cc1-c1ccc(F)cc1`, the melting point is 95 to 96 °C.

`O=c1n(CC(F)(F)F)c2ccccc2n1C1CCN(CCCCN2Cc3cc(Cl)ccc3S2(=O)=O)CC1` showed a melting point of 237 to 239 °C.

For the compound `Cc1ccc(N)c(OCCOc2cc(C(=O)OC(C)(C)C)ccc2N)c1`, the melting point lay in the range of 154 to 156 °C.

Compound `NC(=O)c1nc(-c2cccc(O)c2)nc2c1[nH]c(=O)n2-c1c(F)cccc1F` had a melting point of 355 to 358 °C.

On to `COc1ccc(/C=C(/C(=O)OC(C)(C)C)C(=O)c2ccccc2O)cc1`, for which the melting point fell in the range of 129 to 132 °C.

As for `CCOC(=O)c1cnc(Cc2ccc(OC)c(OC)c2)c2cc(OC)c(OC)cc12`, the melting point lay in the range of 117 to 119 °C.

Turning to `O=C(c1nc2ccccc2s1)C1CCN(CCc2ccccc2)CC1`, the melting point was 108 to 110 °C.

For `O=C(O)c1cc(F)c(F)cc1Nc1ccnn1-c1ccccn1`, the melting point was in the range of 242 to 245 °C.

For the compound `OCCc1nccn1CCCc1ccc(OCc2ccccc2)cc1`, the melting point was 80 to 82 °C.

Regarding `O=c1[nH]ccc2c1c(O)nc1cc(Cl)c(Cl)cc12`, the melting point was greater than 350 °C.

In the case of `OCCON=Cc1ccc(-c2ccccc2)cc1`, the melting point is 116 to 118 °C.

Compound `CS(=O)(=O)Nc1ccc(NS(C)(=O)=O)c(S)c1` had a melting point of 174 to 176 °C.

As for `CC(C)(C)OC(=O)Nc1cc(OC(C)(C)C)c(-c2ccc(F)cc2)cc1N`, the melting point amounted to 139 °C.

Compound `CC(CS)C(=O)Nc1cncc(C(=O)O)c1` (centres undefined) came in with a melting point of 160 to 165 °C.

In the case of `FC(F)(F)c1cc(Cl)nc2[nH]ncc12`, the melting point was determined as 112 °C.

For `O=c1ccc2cnc(Nc3ccccc3)nc2n1-c1ccccc1`, the melting point was 300 to 302 °C.

With `Cc1c(-c2ccc(NC(=O)C(C)C)cc2)sc2c1c(=O)c(C(=O)C(C)C)cn2Cc1c(F)cccc1F`, the melting point is 219 to 222 °C.

As for `Cc1c(Cl)cccc1S(=O)(=O)Nc1nc(C(C)(C)C)cs1`, the melting point turned out to be 178 °C.

With `NC(Cc1ccccc1)C(=O)CCC(=O)O` (centres undefined), the melting point lay within 138 to 139 °C.

Take `Cc1cc(C)cc(COCC(NC(=O)c2ccccc2)C(c2ccccc2)c2ccccc2)c1` (centres undefined): the melting point was in the range of 128 to 129 °C.

`COc1ccc(CN(CCN(C)CCCCCCNC(=S)NCCSCc2csc(NC(=N)N)n2)c2ccccn2)cc1` returned a melting point of 78 °C.

As for `CC12CCCc3cc(Nc4ncc(C(=O)O)cn4)cc(c31)CCC2`, the melting point is greater than 300 °C.

In turn, `CN(Cc1ccc(NC(=O)C2=Cc3cc(-c4ccc(C#N)cc4)ccc3S(=O)(=O)CC2)cc1)C1CCOCC1` displayed a melting point of 233 to 236 °C.

In turn, `CCOC(=O)C1=C(C)NC(C#N)=C(C(=O)OCC)C1c1ccco1` (centres undefined) gave a melting point of 139 to 141 °C.

Compound `CC(=O)c1ccc(OCc2ccccc2)cc1O` displayed a melting point of 107 to 108 °C.

Compound `CC1=C(C(=O)Nc2cc(C(=O)OC(C)C)ccc2F)SCCO1` came in with a melting point of 132 to 135 °C.

For `O=C(O)c1cn(C2CN(C(c3ccccc3)c3ccccc3)C2)c2cc(F)c(F)cc2c1=O`, the melting point fell in the range of 245 to 247 °C.

In the case of `CC(C)(C)OC(=O)CNC(=S)Nc1cccc(C#N)c1`, the melting point fell in the range of 131 to 132 °C.

Regarding `Cc1cc(-c2cc(C(F)F)n3ncc(C(=O)O)c3n2)ccc1Cl`, the melting point turned out to be 238 °C.

For the compound `C#CCN1CC[C@H](O[Si](C)(C)C(C)(C)C)C1=O`, the melting point fell in the range of 35 to 36 °C.

Regarding `O=c1c2c[nH]c3c(c-2nn1-c1ccc(Cl)cc1)CC(c1ccccc1)CC3` (centres undefined), the melting point was in the range of 333 to 335 °C.

Compound `COc1cc2c(c(OC(C)=O)c1)C1CCC3(C)C(OC(C)=O)=CCC3C1CC2` (centres undefined) gave a melting point of 118 °C.

Turning to `CC=CCn1c(C)c(C)c2cnnc(OCc3c(F)cccc3F)c21`, the melting point fell in the range of 85 to 94 °C.
